In ChEMBL document CHEMBL1201862, “PubChem BioAssay data set” (2004):
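Grown in 96-well plates, cells were treated for 48 hours with each compound at five concentrations. Insufficient inhibition: endpoint recorded as highest concentration tested. Here, GI50 denotes the concentration required for 50% inhibition of growth.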 Active and inactive are the calls of the source. Rule as the data show it: active = GI50 up to about 1.1 µM and inactive = higher.

Legend:
Test in all cases: growth of human tumour cells (NCI), 48 h
[1] = system: XF498
[2] = system: HOP-18
[3] = system: DMS-114
[4] = system: M19-MEL
[5] = system: Hs-578T
[6] = system: BT-549
[7] = system: KM-20L2
[8] = system: LXFL 529
[9] = system: RXF 631

CC/C(=N/O)c1ccc2[nH]c3c(C)cc([N+](=O)[O-])c(C)c3c2c1
GI50 [1]: 50.2 µM (inactive) | GI50 [2]: > 100 µM (inactive) | GI50 [3]: > 100 µM (inactive) | GI50 [4]: 50.2 µM (inactive)

COc1cc([N+](=O)[O-])cc2c1NC(=O)C2(C)SC (configuration not stated)
GI50 [5]: > 100 µM (inactive) | GI50 [6]: > 100 µM (inactive)

CC1(C)CCCC2(C)C3=C(CCC12)C(=O)OC3 (configuration not stated)
GI50 [5]: 97.9 µM (inactive) | GI50 [6]: 80.5 µM (inactive)

OCCOCn1nncc1Cn1ncc2c(O)ncnc21
GI50 [5]: > 100 µM (inactive) | GI50 [6]: > 100 µM (inactive)

O=[As](O)(O)c1ccc(/N=N/c2ccc([As](=O)(O)O)cc2)cc1
GI50 [5]: > 100 µM (inactive) | GI50 [6]: > 100 µM (inactive)

CS(=O)(=O)NNS(=O)(=O)c1ccccc1
GI50 [1]: > 100 µM (inactive) | GI50 [7]: > 100 µM (inactive) | GI50 [3]: > 100 µM (inactive) | GI50 [4]: > 100 µM (inactive) | GI50 [8]: > 100 µM (inactive)

O=C1N/N=C\Nc2ccc(cc2)S(=O)(=O)c2ccc(cc2)/N=C\NNC1=O
GI50 [5]: > 100 µM (inactive) | GI50 [6]: 72.8 µM (inactive)

COc1cc2c(/C=C3/C(=O)N(C)c4ccc(O)cc43)c(Cl)[nH]c2cc1C
GI50 [5]: 0.269 µM (active) | GI50 [6]: 0.811 µM (active)

CC(Br)C(=O)NN1C2=C(Nc3ccccc31)c1cccc3cccc2c13 (configuration not stated)
GI50 [5]: 58.9 µM (inactive) | GI50 [6]: > 100 µM (inactive)

Cc1cc2c(C=O)n[nH]c2c(C#N)c1C
GI50 [7]: 65.9 µM (inactive) | GI50 [3]: 26.5 µM (inactive) | GI50 [4]: 60.8 µM (inactive) | GI50 [9]: 58.5 µM (inactive) | GI50 [8]: 34.7 µM (inactive)

COc1cc(-c2cc(=O)c3c(OC)c(OC)c(OC)c(OC)c3o2)c(OC)c(OC)c1OC
GI50 [5]: 19.8 µM (inactive) | GI50 [6]: 17.6 µM (inactive)

Cc1c2nc3ccccc3sc-2cc(=O)c1C
GI50 [1]: 28.4 µM (inactive) | GI50 [2]: > 100 µM (inactive) | GI50 [7]: > 72.6 µM (inactive) | GI50 [3]: 10.2 µM (inactive) | GI50 [4]: 15.8 µM (inactive) | GI50 [8]: 41 µM (inactive)

c1ccc2c(OCCSCCCCCCCCCCSCCOc3cccc4ccccc34)cccc2c1
GI50 [2]: > 100 µM (inactive) | GI50 [7]: > 100 µM (inactive) | GI50 [3]: > 100 µM (inactive) | GI50 [4]: > 100 µM (inactive)

CN1c2ccc(O)c(O)c2-c2cc(O)cc3c2C1CCC3 (configuration not stated)
GI50 [5]: 35.2 µM (inactive) | GI50 [6]: 17.3 µM (inactive)

Cc1cc(S(=O)(=O)Nc2n[nH]c(-c3ccc(Cl)cc3)n2)c(SSc2cc(Cl)c(C)cc2S(=O)(=O)Nc2n[nH]c(-c3ccc(Cl)cc3)n2)cc1Cl
GI50 [5]: 28.2 µM (inactive) | GI50 [6]: 40.6 µM (inactive)

C=C1[C@H](OCC(C)C)[C@@H](OCC(C)C)[C@@H](O)C(C)(C)/C=C/[C@H](C)C(=O)[C@@]2(O)C[C@H](C)[C@H](O)[C@@H]2[C@H]1OCC(C)C
GI50 [5]: 2.77 µM (inactive) | GI50 [6]: > 7.5 µM (inactive)

CC#CC(OCC)(OCC)OCC
GI50 [1]: > 100 µM (inactive) | GI50 [2]: > 100 µM (inactive) | GI50 [7]: > 100 µM (inactive) | GI50 [3]: 25.8 µM (inactive) | GI50 [4]: > 100 µM (inactive) | GI50 [8]: > 100 µM (inactive)

[N-]=[N+]=NCC(O)Cn1cnc2c(NC(=O)c3ccccc3)ncnc21 (configuration not stated)
GI50 [1]: > 100 µM (inactive) | GI50 [2]: > 100 µM (inactive) | GI50 [7]: > 100 µM (inactive) | GI50 [3]: 67.1 µM (inactive) | GI50 [4]: > 100 µM (inactive) | GI50 [8]: > 100 µM (inactive)

Clc1ccc(-c2c(C3=NCCN3)nnn2-c2ccc(Cl)cc2)cc1
GI50 [1]: 15 µM (inactive) | GI50 [2]: > 100 µM (inactive) | GI50 [7]: 15.7 µM (inactive) | GI50 [3]: 16.4 µM (inactive) | GI50 [4]: 16.6 µM (inactive) | GI50 [8]: 29.4 µM (inactive)

CCc1n[nH]c(=O)n1/N=C/c1ccccc1Cl
GI50 [5]: 2.69 µM (inactive) | GI50 [6]: > 100 µM (inactive)

Cc1ccc(-c2cnc(NC3OC(COC(=O)c4ccccc4)C(OC(=O)c4ccccc4)C(OC(=O)c4ccccc4)C3OC(=O)c3ccccc3)s2)cc1 (configuration not stated)
GI50 [5]: 82 µM (inactive) | GI50 [6]: > 100 µM (inactive)

Cc1nc2ccc(F)cc2c(Cl)c1CCCl
GI50 [5]: 43.9 µM (inactive) | GI50 [6]: 36.9 µM (inactive)

N=C1N(S(=O)(=O)c2ccccc2)[C@@H](Cc2ccccc2)[C@H](c2ccccc2)C1(c1ccccc1)c1ccccc1
GI50 [5]: > 100 µM (inactive) | GI50 [6]: > 100 µM (inactive)

COC(=O)[C@@]12CC[C@]1(C(=O)OC)C1C(C)=CC(=O)O[C@@]12C (some centres not stated)
GI50 [5]: > 100 µM (inactive) | GI50 [6]: > 100 µM (inactive)

O=S(=O)(O)c1ccc2cc(/N=N/c3c(O)ccc4ccccc34)ccc2c1
GI50 [5]: 69.2 µM (inactive) | GI50 [6]: > 100 µM (inactive)

OC(C1=C/C(=C\c2ccncc2)c2ccccc21)c1ccncc1 (configuration not stated)
GI50 [5]: 12.2 µM (inactive) | GI50 [6]: 19 µM (inactive)

C=C1C(=O)O[C@@H]2O[C@@]3(C)CC[C@H]4[C@H](C)CC[C@@H]1[C@@]24O3 [DEOXYARTEMISITENE]
GI50 [5]: 39 µM (inactive) | GI50 [6]: 7.46 µM (inactive)

CC(C)(C)OCC1NC(=O)[C@@H]2Cc3c([nH]c4ccccc34)C(C3CCCCC3)N2C1=O (some centres not stated)
GI50 [5]: 20.8 µM (inactive) | GI50 [6]: 20.9 µM (inactive)
